From patent US5521216A, “Chromone derivative, and aldose reductase inhibitor comprising said compound as active ingredient” (Tsumura & Co., priority 1992, dated 1996) come the findings set out here.

The target in test [1] is T1, Aldose reductase (Rattus norvegicus, UniProt P07943).
T1 construct: The crystalline lenses were homogenized in 135 mM sodium-potassium-phosphate buffer; from tissue; host or cells: crystalline lens of 6 week-old male Wistar rats (30,000 rpm supernatant)
Briefly: Aldose reductase activity measurement (in vivo), sorbitol in sciatic nerves of STZ diabetic rats. Set-up: species or system Wistar male rats. To be noted: sciatic nerve sorbitol, oral for 2 weeks, 100 mg/kg (other compounds stated at 30 mg/kg). The protocol:
<Aldose reductase activity measurement (in vivo)>
A solution of streptozotocin (STZ) in 10 mM citrate buffer (pH 4.5) was administered intravenously to the tails of 6 week-old Wistar male rats in a dosage of 65 mg/kg. 48 hours thereafter, blood was collected from the carotid arteries of the rats. Rats with a blood sugar level of higher than 200 mg/dl were classified as diabetic rats, among which rats with a persistent high level of blood sugar were employed in the experiment. The blood sugar level was determined by the glucose oxidase method. […]
After 2-week administration, the sciatic nerves were removed from the rat under ether anesthesia, then weighed, and stored at -20° C.
The content of sorbitol in the sciatic nerves was determined as follows.
The sciatic nerves were extracted at 100° C. for 20 min. with 1 ml purified water containing 10 μg/ml arabinitol, and then 0.2 ml of 0.2M barium hydroxide and 0.2 ml of 0.19M zinc sulfate were added thereto. The sample was centrifuged (3000 rpm, 30 min.) and the supernatant was evaporated to dryness. The residue thus obtained was trimethysilylated and was then analyzed by gas chromatography.
Sorbitol is an intermediate which occurs upon the conversion of glucose into fructose by aldose reductase and is accumulated together with fructose in the crystalline lenses and sciatic nerves particularly under a high level of blood sugar. […]

Test [2] deals with T1, Aldose reductase. Briefly: Aldose reductase activity measurement (in vitro), rat crystalline lens enzyme, NADP fluorescence. In kind it is biochemical, Wistar male rats. To be noted: 20 mM glucose substrate, 30 min, 30° C., pH 7.0, read-out: 50% inhibition concentration [IC50 (M)]. On the procedure:
<Aldose reductase activity measurement (in vitro)>
6 week-old Wistar male rats were sacrificed under ether anesthesia and immediately the crystalline lenses were scissored and stored at -20° C.
The crystalline lenses were homogenized in 135 mM sodium-potassium-phosphate buffer, pH 7.0, and centrifuged for 30 min. at 30,000 rpm. The supernatant was used as an aldose-reductase solution. All the above procedures were carried out at 4° C. and the enzyme solution was stored at -20° C.
Aldose reductase activity was determined according to the method as described by Dufrane et al. (Biochemical Medicine, 32, 99-105 (1984)), as follows.
100 μl of the above enzyme solution and 100 μl of a sample solution prepared by dissolving a compound obtained in the following examples to a final concentration of from 1.0×10^-5 to 4.0×10^-7 M in dimethylsulfoxide (DMSO) were added to 800 μl of 135 mM sodium-potassium-phosphate buffer, pH 7.0, containing 100 mM lithium sulfate, 0.03 mM NADPH (reduced nicotinamide adenine dinucleotide phosphate), and 20 mM glucose as a substrate. The sample was allowed to react for 30 min. at 30° C. Then the reaction was stopped by addition of 0.3 ml of 0.5N hydrochloric acid. By adding 1 ml of 6N sodium hydroxide containing 10 mM imidazole, the NADP (oxidized nicotinamide adenine dinucleotide phosphate) formed in the above reaction was converted into a fluorescent substance, and 30 min. thereafter, the sample was measured for fluorescence intensity at the fluorescence wavelength of 460 nm (excitation wavelength: 360 nm) using fluorescence photometer F-4000 (manufactured by Hitachi, Ltd.) at room temperature. A sample containing DMSO in place of the present compound was used as a control group, and its fluorescence intensity was determined in the same manner as described above.
Aldose reductase is an enzyme that converts DL-glyceraldehyde or glucose into polyol in the presence of […] as a coenzyme, and as the reaction proceeds, NADPH is converted into NADP.

For the molecule `COc1c(O)cc2oc(Oc3ccc(O)cc3)cc(=O)c2c1O` [Capillarisin], the “Repression (%)” value in test [1] amounted to 18.9%.

Regarding `CC(C)Oc1cc(OC(C)C)c2c(=O)cc(Sc3ccc(O)cc3)oc2c1` [Example 1, 2-(4-hydroxyphenylthio)-5,7-di-isopropoxychromone], the IC50 in test [2] is 1.8e-08 M.

Take `O=c1cc(Sc2ccc(O)cc2)oc2cc(O)cc(O)c12` [Example 4, 5,7-dihydroxy-2-(4-hydroxyphenylthio)chromone]: in test [2], the IC50 turned out to be 3.2e-07 M.

Consider `CC(C)Oc1cc(O)c2c(=O)cc(Sc3ccc(O)cc3)oc2c1` [Example 5, 5-hydroxy-2-(4-hydroxyphenylthio)-7-isopropoxychromone], for which the IC50 in test [2] came to 2.3e-07 M.

For the molecule `COc1cc(OC(C)C)cc2oc(Sc3ccc(O)cc3)cc(=O)c12` [Example 6, 2-(4-hydroxyphenylthio)-7-isopropoxy-5-methoxychromone], the IC50 in test [2] was 8e-08 M.
